The values that follow come from US20210024545A1, “SUBSTITUTED DIAZAHETERO-BICYCLIC COMPOUNDS AND THEIR USE” (Bayer Aktiengesellschaft, priority 2016, published 2021).

For orientation: IC50 means the concentration that inhibits the measured activity by half.

Molecules are shown by their SMILES.

For one test, the target named is human TASK-3 (Homo sapiens, UniProt Q9NPC2). The test is described as follows: Inhibition of recombinant TASK-3 in stably transfected CHO cells, KCl-induced depolarization, voltage-sensitive dye (B-2). It counts as cell-based. More on the design: expressed in transfected cells; host or cells: stably transfected CHO cells. As to conditions: depolarization induced by 40 mM potassium chloride, some mean values from multiple determinations. Put shortly: (§1)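 Stably transfected CHO cells loaded with a voltage-sensitive membrane potential dye. Depolarization was induced with 40 mM KCl, and compound inhibition of it was read by fluorescence. IC50 is the concentration blocking half of the KCl-induced depolarization; some values are means of multiple independent determinations.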

A further test deals with human TASK-1 (Homo sapiens, UniProt O14649). The test is described as follows: Inhibition of recombinant TASK-1 in stably transfected CHO cells, KCl-induced depolarization, voltage-sensitive dye (B-2). It counts as cell-based. More on the design: expressed in transfected cells; host or cells: stably transfected CHO cells. As to conditions: depolarization induced by 40 mM potassium chloride, some mean values from multiple determinations. The procedure, abridged: as §1
human TASK-1, sequence (O14649 whole entry): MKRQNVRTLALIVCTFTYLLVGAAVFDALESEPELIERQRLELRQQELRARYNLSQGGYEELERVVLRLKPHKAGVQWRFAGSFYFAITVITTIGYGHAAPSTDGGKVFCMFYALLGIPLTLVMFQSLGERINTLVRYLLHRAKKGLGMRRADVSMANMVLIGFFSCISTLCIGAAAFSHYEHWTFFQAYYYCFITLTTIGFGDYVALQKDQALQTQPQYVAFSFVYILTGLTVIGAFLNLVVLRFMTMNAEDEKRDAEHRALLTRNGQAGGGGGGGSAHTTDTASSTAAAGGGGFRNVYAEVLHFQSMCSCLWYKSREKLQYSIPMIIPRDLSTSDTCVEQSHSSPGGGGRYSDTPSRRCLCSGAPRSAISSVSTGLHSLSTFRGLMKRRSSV

human TASK-3, sequence (Q9NPC2 whole entry): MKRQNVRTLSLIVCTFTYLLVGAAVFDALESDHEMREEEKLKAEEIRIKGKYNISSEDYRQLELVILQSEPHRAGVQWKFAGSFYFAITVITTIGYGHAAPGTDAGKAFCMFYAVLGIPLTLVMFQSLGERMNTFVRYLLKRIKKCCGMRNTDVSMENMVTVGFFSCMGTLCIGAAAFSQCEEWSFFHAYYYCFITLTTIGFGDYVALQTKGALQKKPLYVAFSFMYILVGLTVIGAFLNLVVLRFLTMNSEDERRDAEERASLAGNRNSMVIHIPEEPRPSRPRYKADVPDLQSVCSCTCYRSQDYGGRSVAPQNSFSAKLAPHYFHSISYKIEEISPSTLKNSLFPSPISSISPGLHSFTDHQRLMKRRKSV

For `CC(C)c1ccccc1C(=O)N1C2CCC1CN(Cc1c(-c3ccc(Br)cc3)nc3ccccn13)C2` [Example 141, (3-{[2-(4-Bromophenyl)imidazo[1,2-a]pyridin-3-yl]methyl}-3,8-diazabicyclo[3.2.1]oct-8-yl)(2-isopropylphenyl)methanone], the IC50 is 59 nM on human TASK-3 and 250 nM at human TASK-1.

Turning to `COc1ccc(C)c(C(=O)N2C3CC2CN(Cc2c(-c4ccc(Cl)cc4)nc4ccccn24)C3)n1` [Example 142, (3-{[2-(4-Chlorophenyl)imidazo[1,2-a]pyridin-3-yl]methyl}-3,6-diazabicyclo[3.1.1]hept-6-yl)(6-methoxy-3-methylpyridin-2-yl)methanone], the results for the IC50 on human TASK-3 and at human TASK-1 were 98 nM and 240 nM, respectively.

Consider `COc1ccc(C)c(C(=O)N2CC3CCC(C2)N3Cc2c(-c3ccc(Cl)cc3)nc3ccccn23)n1` [Example 143, (8-{[2-(4-Chlorophenyl)imidazo[1,2-a]pyridin-3-yl]methyl}-3,8-diazabicyclo[3.2.1]oct-3-yl)(6-methoxy-3-methylpyridin-2-yl)methanone], for which the IC50 at human TASK-3 turned out to be 14 nM; on human TASK-1 it was 130 nM.

Consider `COc1ccc(C)c(C(=O)N2CC3CCC(C2)N3Cc2c(-c3ccc(C(C)C)cc3)nc3ccccn23)n1` [Example 144, (8-{[2-(4-Isopropylphenyl)imidazo[1,2-a]pyridin-3-yl]methyl}-3,8-diazabicyclo[3.2.1]oct-3-yl)(6-methoxy-3-methylpyridin-2-yl)methanone], for which the IC50 on human TASK-3 came out at 27 nM; on human TASK-1, 180 nM.

`COc1ccc(C)c(C(=O)N2C3CCC2CN(Cc2c(-c4ccc(C(C)C)cc4)nc4ccccn24)C3)n1` [Example 145, (3-{[2-(4-Isopropylphenyl)imidazo[1,2-a]pyridin-3-yl]methyl}-3,8-diazabicyclo[3.2.1]oct-8-yl)(6-methoxy-3-methylpyridin-2-yl)methanone]: the IC50 at human TASK-3 stood at 27 nM; at human TASK-1, 280 nM.

As for `CC(C)c1csc(C(=O)N2C3CCC2CN(Cc2c(-c4ccc(Cl)cc4)nc4ccccn24)C3)n1` [Example 146, (3-{[2-(4-Chlorophenyl)imidazo[1,2-a]pyridin-3-yl]methyl}-3,8-diazabicyclo[3.2.1]oct-8-yl)(4-isopropyl-1,3-thiazol-2-yl)methanone], the values for the IC50 on human TASK-3 and on human TASK-1 were 340 nM and 920 nM, respectively.

On to `O=C(c1nccs1)N1C2CCC1CN(Cc1c(-c3ccc(Cl)cc3)nc3ccccn13)C2` [Example 147, (3-{[2-(4-Chlorophenyl)imidazo[1,2-a]pyridin-3-yl]methyl}-3,8-diazabicyclo[3.2.1]oct-8-yl)(1,3-thiazol-2-yl)methanone], for which the IC50 on human TASK-3 was determined as 15 nM; at human TASK-1, 12 nM.

As for `Cc1csc(C(=O)N2C3CCC2CN(Cc2c(-c4ccc(Cl)cc4)nc4ccccn24)C3)n1` [Example 148, (3-{[2-(4-Chlorophenyl)imidazo[1,2-a]pyridin-3-yl]methyl}-3,8-diazabicyclo[3.2.1]oct-8-yl)(4-methyl-1,3-thiazol-2-yl)methanone], the 50% inhibitory concentration (IC50) was determined as 2.7 nM at human TASK-3 and 23 nM at human TASK-1.

For the molecule `Cc1cnc(C(=O)N2C3CCC2CN(Cc2c(-c4ccc(Cl)cc4)nc4ccccn24)C3)s1` [Example 149, (3-{[2-(4-Chlorophenyl)imidazo[1,2-a]pyridin-3-yl]methyl}-3,8-diazabicyclo[3.2.1]oct-8-yl)(5-methyl-1,3-thiazol-2-yl)methanone], the values for the half-maximal inhibitory concentration (IC50) at human TASK-3 and on human TASK-1 were 300 nM and 3000 nM, respectively.

Regarding `Cc1nc(C(=O)N2C3CCC2CN(Cc2c(-c4ccc(Cl)cc4)nc4ccccn24)C3)sc1C` [Example 150, (3-{[2-(4-Chlorophenyl)imidazo[1,2-a]pyridin-3-yl]methyl}-3,8-diazabicyclo[3.2.1]oct-8-yl)(4,5-dimethyl-1,3-thiazol-2-yl)methanone], the IC50 was found to be 210 nM at human TASK-3 and 2700 nM on human TASK-1.
